Data from patent US12686711B2, “DARIC interleukin receptors” (Regeneron Pharmaceuticals, Inc., priority 2017, dated 2026).
pIC50: −log10 of the molar value.

Experiments:
[1] = target or test not stated; chemically modified non-immunosuppressive rapamycin analogue; cited from earlier work
donor PBMCs = experiment: IFNγ production in IL-12 pre-treated transduced and untransduced donor PBMCs; assay type: cell-based; conditions: untransduced controls and IL-18R-DARIC-GFP transduced cells; pre-treated 50 ng/mL human recombinant IL-12 for 24 hours, then medium with 100 ng/mL human recombinant IL-18; FIG. 2
From the text: IL-18 receptor (IL-18R) DARIC binding and signaling components were designed, constructed, and verified. An IL-18R DARIC lentiviral vector was constructed comprising an MNDU3 promoter operably linked to a polynucleotide encoding: a DARIC signaling component (CD8α-signal peptide, an FRB variant (T82L), and an IL-18R1 transmembrane and signaling domain); a P2A sequence; and a DARIC binding component (an Igκ-signal peptide, an FKBP12 domain, and a IL-18RAP transmembrane and signaling domain). An IL-18R DARIC-GFP lentiviral vector was constructed by appending another polynucleotide encoding a P2A sequence and GFP to the to the polynucleotide encoding the IL-18R1 signaling domain in aforementioned vector. See, e.g., SEQ ID NOs: 1-4.
Donor PBMCs were transduced with LVV encoding IL-18R-DARIC-GFP. Transduced PBMCs and untransduced control PBMCs were pre-treated with 50 ng/mL human recombinant IL-12 for 24 hours. The treated cells were washed and cultured in medium only, medium with 100 ng/mL human recombinant IL-18 or medium with 1 nM rapamycin. […] FIG. 2.

Compound | pIC50 [1] | IFNγ production when cultured in IL-18 (donor PBMCs)
CO[C@H]1[C@@H](O)[C@H](C)C[C@H](C)/C=C/C=C/C=C(\C)[C@@H](c2c[nH]c3c(C)cccc23)C[C@@H]2CC[C@@H](C)[C@@](O)(O2)C(=O)C(=O)N2CCCC[C@H]2C(=O)O[C@H]([C@H](C)C[C@@H]2CC[C@@H](O)[C@H](OC)C2)C[C@H](O)[C@H](C)/C=C(\C)[C@H]1O [AP21967, C-16-(S)-7-methylindolerapamycin] | 8.00 | 
IL-18: human recombinant IL-18 cytokine used as positive control |  | increased IFNγ production in both untransduced controls and cells transduced with IL-18R-DARIC-GFP
